# Data published in PubChem BioAssay AID2060601 (Molecular Pharmacology Branch, DTP, NCI, 2025).
# System: 874868-142-R-J2-PDC complex spheroids, growth % test/control
# Experiment: Anticancer human tumor 874868-142-R-J2-PDC patient-derived head and neck squamous carcinoma cell line growth inhibition [CLK]
# Conditions: for IC50: curve of first compound; for viability, T/C: stronger effect = lower value
# How it was run: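 Multi-cell-type spheroids combined patient-derived tumor cells with HUVEC endothelial cells and human mesenchymal stem cells. Paired agents were dosed in half-log steps down from about clinical Cmax, or from 10 microM where Cmax was unknown.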
# [1] = second compound 0.0316 µM, first compound 0.0316 µM
# [2] = second compound 0.0316 µM, first compound 0.1 µM
# [3] = second compound 0.0316 µM, first compound 0.316 µM
# [4] = second compound 0.0316 µM, first compound 1 µM
# [5] = second compound 0.1 µM, first compound 0.0316 µM
# [6] = second compound 0.1 µM, first compound 0.1 µM
# [7] = second compound 0.1 µM, first compound 0.316 µM
# [8] = second compound 0.1 µM, first compound 1 µM
# [9] = second compound 0.316 µM, first compound 0.0316 µM
# [10] = second compound 0.316 µM, first compound 0.1 µM
# [11] = second compound 0.316 µM, first compound 0.316 µM
# [12] = second compound 0.316 µM, first compound 1 µM
# [13] = second compound 1 µM, first compound 0.0316 µM
# [14] = second compound 1 µM, first compound 0.1 µM
# [15] = second compound 1 µM, first compound 0.316 µM
# [16] = second compound 1 µM, first compound 1 µM
# [17] = second compound 3.16 µM, first compound 0.0316 µM
# [18] = second compound 3.16 µM, first compound 0.1 µM
# [19] = second compound 3.16 µM, first compound 0.316 µM
# [20] = second compound 3.16 µM, first compound 1 µM
# [21] = second compound 10 µM, first compound 0.0316 µM
# [22] = second compound 10 µM, first compound 0.1 µM
# [23] = second compound 10 µM, first compound 0.316 µM
# [24] = second compound 10 µM, first compound 1 µM
# [25] = second compound 0.0316 µM, first compound 0.00316 µM
# [26] = second compound 0.0316 µM, first compound 0.01 µM
# [27] = second compound 0.1 µM, first compound 0.00316 µM
# [28] = second compound 0.1 µM, first compound 0.01 µM
# [29] = second compound 0.316 µM, first compound 0.00316 µM
# [30] = second compound 0.316 µM, first compound 0.01 µM
# [31] = second compound 1 µM, first compound 0.00316 µM
# [32] = second compound 1 µM, first compound 0.01 µM
# [33] = second compound 3.16 µM, first compound 0.00316 µM
# [34] = second compound 3.16 µM, first compound 0.01 µM
# [35] = second compound 10 µM, first compound 0.00316 µM
# [36] = second compound 10 µM, first compound 0.01 µM
# 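Further: spheroids exposed to the compounds for 7 days.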
# 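Wherever viability, T/C is given: 100% = DMSO vehicle control viability.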
smiles,measurement,setting,value
C=CC(=O)Nc1cc(Nc2nccc(-c3cn(C)c4ccccc34)n2)c(OC)cc1N(C)CCN(C)C + CN1CCN(c2cc(C(=O)Nc3cc4cc(-c5cnn(C)c5)ccc4cn3)ccn2)CC1,IC50,second compound 0.0316 µM,51.9 nM
same,IC50,second compound 0.1 µM,21.9 nM
same,IC50,second compound 0.316 µM,< 0.949 nM
same,IC50,second compound 1 µM,< 0.949 nM
same,IC50,second compound 3.16 µM,< 0.949 nM
same,IC50,second compound 10 µM,< 0.949 nM
same,"viability, T/C","second compound 0.0316 µM, first compound 0.000949 µM",84.1%
same,"viability, T/C","second compound 0.0316 µM, first compound 0.003 µM",90.5%
same,"viability, T/C","second compound 0.0316 µM, first compound 0.00949 µM",80.3%
same,"viability, T/C","second compound 0.0316 µM, first compound 0.03 µM",61.9%
same,"viability, T/C","second compound 0.0316 µM, first compound 0.0949 µM",37.1%
same,"viability, T/C","second compound 0.0316 µM, first compound 0.3 µM",27.3%
same,"viability, T/C","second compound 0.1 µM, first compound 0.000949 µM",76%
same,"viability, T/C","second compound 0.1 µM, first compound 0.003 µM",70.6%
same,"viability, T/C","second compound 0.1 µM, first compound 0.00949 µM",59.1%
same,"viability, T/C","second compound 0.1 µM, first compound 0.03 µM",49.6%
same,"viability, T/C","second compound 0.1 µM, first compound 0.0949 µM",26.8%
same,"viability, T/C","second compound 0.1 µM, first compound 0.3 µM",22%
same,"viability, T/C","second compound 0.316 µM, first compound 0.000949 µM",19.2%
same,"viability, T/C","second compound 0.316 µM, first compound 0.003 µM",16.2%
same,"viability, T/C","second compound 0.316 µM, first compound 0.00949 µM",19.7%
same,"viability, T/C","second compound 0.316 µM, first compound 0.03 µM",9.31%
same,"viability, T/C","second compound 0.316 µM, first compound 0.0949 µM",15.2%
same,"viability, T/C","second compound 0.316 µM, first compound 0.3 µM",7.92%
same,"viability, T/C","second compound 1 µM, first compound 0.000949 µM",0.41%
same,"viability, T/C","second compound 1 µM, first compound 0.003 µM",0.88%
same,"viability, T/C","second compound 1 µM, first compound 0.00949 µM",1.96%
same,"viability, T/C","second compound 1 µM, first compound 0.03 µM",0.37%
same,"viability, T/C","second compound 1 µM, first compound 0.0949 µM",0.71%
same,"viability, T/C","second compound 1 µM, first compound 0.3 µM",0.79%
same,"viability, T/C","second compound 3.16 µM, first compound 0.000949 µM",0.27%
same,"viability, T/C","second compound 3.16 µM, first compound 0.003 µM",0.34%
same,"viability, T/C","second compound 3.16 µM, first compound 0.00949 µM",0.26%
same,"viability, T/C","second compound 3.16 µM, first compound 0.03 µM",0.66%
same,"viability, T/C","second compound 3.16 µM, first compound 0.0949 µM",4.28%
same,"viability, T/C","second compound 3.16 µM, first compound 0.3 µM",0.48%
same,"viability, T/C","second compound 10 µM, first compound 0.000949 µM",7.4%
same,"viability, T/C","second compound 10 µM, first compound 0.003 µM",0.25%
same,"viability, T/C","second compound 10 µM, first compound 0.00949 µM",3.1%
same,"viability, T/C","second compound 10 µM, first compound 0.03 µM",0.21%
same,"viability, T/C","second compound 10 µM, first compound 0.0949 µM",1.3%
same,"viability, T/C","second compound 10 µM, first compound 0.3 µM",2.16%
CC(Nc1ccc2c(c1)OCCn1cc(N3C(=O)OCC3C(F)F)nc1-2)C(N)=O (stereo not drawn) + CN1CCN(c2cc(C(=O)Nc3cc4cc(-c5cnn(C)c5)ccc4cn3)ccn2)CC1,IC50,second compound 0.0316 µM,89.4 nM
same,IC50,second compound 0.1 µM,75.5 nM
same,IC50,second compound 0.316 µM,< 31.6 nM
same,IC50,second compound 1 µM,< 31.6 nM
same,IC50,second compound 3.16 µM,< 31.6 nM
same,IC50,second compound 10 µM,< 31.6 nM
same,"viability, T/C",[1],69.5%
same,"viability, T/C",[2],46.7%
same,"viability, T/C",[3],33.7%
same,"viability, T/C",[4],22.6%
same,"viability, T/C","second compound 0.0316 µM, first compound 3.16 µM",13.8%
same,"viability, T/C","second compound 0.0316 µM, first compound 10 µM",12.3%
same,"viability, T/C",[5],78.7%
same,"viability, T/C",[6],36.1%
same,"viability, T/C",[7],30.2%
same,"viability, T/C",[8],20.7%
same,"viability, T/C","second compound 0.1 µM, first compound 3.16 µM",12.8%
same,"viability, T/C","second compound 0.1 µM, first compound 10 µM",12%
same,"viability, T/C",[9],19.3%
same,"viability, T/C",[10],15.2%
same,"viability, T/C",[11],17.8%
same,"viability, T/C",[12],8.67%
same,"viability, T/C","second compound 0.316 µM, first compound 3.16 µM",12.4%
same,"viability, T/C","second compound 0.316 µM, first compound 10 µM",8.37%
same,"viability, T/C",[13],0.31%
same,"viability, T/C",[14],1.8%
same,"viability, T/C",[15],1.32%
same,"viability, T/C",[16],0.15%
same,"viability, T/C","second compound 1 µM, first compound 3.16 µM",1.54%
same,"viability, T/C","second compound 1 µM, first compound 10 µM",0.14%
same,"viability, T/C",[17],0.28%
same,"viability, T/C",[18],3.06%
same,"viability, T/C",[19],0.36%
same,"viability, T/C",[20],0.11%
same,"viability, T/C","second compound 3.16 µM, first compound 3.16 µM",0.47%
same,"viability, T/C","second compound 3.16 µM, first compound 10 µM",0.23%
same,"viability, T/C",[21],0.13%
same,"viability, T/C",[22],0.11%
same,"viability, T/C",[23],1.27%
same,"viability, T/C",[24],0.14%
same,"viability, T/C","second compound 10 µM, first compound 3.16 µM",0.18%
same,"viability, T/C","second compound 10 µM, first compound 10 µM",0.2%
CCN1CCN(Cc2ccc(Nc3ncc(F)c(-c4cc(F)c5nc(C)n(C(C)C)c5c4)n3)nc2)CC1 + CN1CCN(c2cc(C(=O)Nc3cc4cc(-c5cnn(C)c5)ccc4cn3)ccn2)CC1,IC50,second compound 0.0316 µM,> 1000 nM
same,IC50,second compound 0.1 µM,> 1000 nM
same,IC50,second compound 0.316 µM,< 3.16 nM
same,IC50,second compound 1 µM,< 3.16 nM
same,IC50,second compound 3.16 µM,< 3.16 nM
same,IC50,second compound 10 µM,< 3.16 nM
same,"viability, T/C",[25],82.8%
same,"viability, T/C",[26],65%
same,"viability, T/C",[1],82.2%
same,"viability, T/C",[2],89%
same,"viability, T/C",[3],72%
same,"viability, T/C",[4],110%
same,"viability, T/C",[27],85.4%
same,"viability, T/C",[28],66.9%
same,"viability, T/C",[5],54.9%
same,"viability, T/C",[6],66.8%
same,"viability, T/C",[7],62.5%
same,"viability, T/C",[8],91%
same,"viability, T/C",[29],22.7%
same,"viability, T/C",[30],22.2%
same,"viability, T/C",[9],25.9%
same,"viability, T/C",[10],23.1%
same,"viability, T/C",[11],43.9%
same,"viability, T/C",[12],49.6%
same,"viability, T/C",[31],0.58%
same,"viability, T/C",[32],0.34%
same,"viability, T/C",[13],0.43%
same,"viability, T/C",[14],0.43%
same,"viability, T/C",[15],0.48%
same,"viability, T/C",[16],0.58%
same,"viability, T/C",[33],0.3%
same,"viability, T/C",[34],2.83%
same,"viability, T/C",[17],0.23%
same,"viability, T/C",[18],0.83%
same,"viability, T/C",[19],0.56%
same,"viability, T/C",[20],1%
same,"viability, T/C",[35],0.7%
same,"viability, T/C",[36],2.35%
same,"viability, T/C",[21],0.16%
same,"viability, T/C",[22],0.16%
same,"viability, T/C",[23],0.18%
same,"viability, T/C",[24],4.41%
COc1c(OCCCN2CCOCC2)ccc2c3n(c(=NC(=O)c4cnc(N)nc4)nc12)CCN3 + CN1CCN(c2cc(C(=O)Nc3cc4cc(-c5cnn(C)c5)ccc4cn3)ccn2)CC1,IC50,second compound 0.0316 µM,7.48 nM
same,IC50,second compound 0.1 µM,5.7 nM
same,IC50,second compound 0.316 µM,< 3.16 nM
same,IC50,second compound 1 µM,< 3.16 nM
same,IC50,second compound 3.16 µM,< 3.16 nM
same,IC50,second compound 10 µM,< 3.16 nM
same,"viability, T/C",[25],66.7%
same,"viability, T/C",[26],44.8%
same,"viability, T/C",[1],21.2%
same,"viability, T/C",[2],11.6%
same,"viability, T/C",[3],5.06%
same,"viability, T/C",[4],3.88%
same,"viability, T/C",[27],57.3%
same,"viability, T/C",[28],42.7%
same,"viability, T/C",[5],23.6%
same,"viability, T/C",[6],9.84%
same,"viability, T/C",[7],5.07%
same,"viability, T/C",[8],5.77%
same,"viability, T/C",[29],19.1%
same,"viability, T/C",[30],18.6%
same,"viability, T/C",[9],10.7%
same,"viability, T/C",[10],4.09%
same,"viability, T/C",[11],3.08%
same,"viability, T/C",[12],1.68%
same,"viability, T/C",[31],0.4%
same,"viability, T/C",[32],0.24%
same,"viability, T/C",[13],0.24%
same,"viability, T/C",[14],0.07%
same,"viability, T/C",[15],0.34%
same,"viability, T/C",[16],0.22%
same,"viability, T/C",[33],0.17%
same,"viability, T/C",[34],0.16%
same,"viability, T/C",[17],0.17%
same,"viability, T/C",[18],0.36%
same,"viability, T/C",[19],0.16%
same,"viability, T/C",[20],0.19%
same,"viability, T/C",[35],0.07%
same,"viability, T/C",[36],0.15%
same,"viability, T/C",[21],1.27%
same,"viability, T/C",[22],0.4%
same,"viability, T/C",[23],0.14%
same,"viability, T/C",[24],0.18%
